According to US7994140B2, “Classes of compounds that interact with GPCRs” (Alchemia Limited, priority 2002, dated 2011):

Legend:
SST5 = biological target: T1, SST5 (Homo sapiens, UniProt P35346); experiment: GPCR radioligand binding (RLB) assay, somatostatin SST5, [125I]SST-14; conditions: for SST5 inhibition at 10 micromolar: 10 micromolar compound, recombinant human receptor membranes (HEK 293); for SSTS inhibition at 10 micromolar: Example Library 4
T1 construct: purchased Perkin Elmer BioSignal; host or cells: HEK 293
T1 sequence (P35346 whole entry): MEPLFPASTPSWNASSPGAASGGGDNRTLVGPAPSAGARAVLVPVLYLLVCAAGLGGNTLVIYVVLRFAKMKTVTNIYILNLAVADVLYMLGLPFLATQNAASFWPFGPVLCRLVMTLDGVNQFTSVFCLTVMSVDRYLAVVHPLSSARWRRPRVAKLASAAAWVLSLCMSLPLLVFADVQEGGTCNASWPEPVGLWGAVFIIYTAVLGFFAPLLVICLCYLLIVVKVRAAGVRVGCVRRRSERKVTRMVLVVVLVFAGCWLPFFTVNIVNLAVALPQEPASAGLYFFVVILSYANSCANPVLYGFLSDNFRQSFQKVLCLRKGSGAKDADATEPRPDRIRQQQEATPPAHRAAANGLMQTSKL
Procedure: Recombinant human receptors expressed in HEK 293 cells were used for all experiments. Receptor membrane preparations were purchased from Perkin Elmer BioSignal. The labelled ligand used in somatostatin GPCR RLB assays was [^125I]SST-14 and in melanocortin assays was [^125I]NDP-αMSH. All assays were done in a 96-well plate format using either glass fiber filter mats or filter plates. All reagents purchased were of the highest quality.
Specific assay buffer, incubation and washing conditions were optimized for each receptor however they all followed the same general format. The procedures for both filter mat and filter plate formats are based on the receptor manufacturers recommendations or those described extensively in the literature. The procedures are briefly outlined below.
In assays where filter mats are used we incubate receptor membranes, assay buffer and [^125I] labelled ligand in 96 well microplates. Add compounds to incubation mixture and continue incubation for optimized period. Presoak Filter mat GF/B in 0.5% PEI for ˜2 hr at 4° C. On completion of assay mixture incubation add additional 100 μL/well of assay buffer immediately prior to filtration. Filter the assay mixture onto the GF/B filter mat using a cell harvester. Dry the filter mats prior to sealing them into a scintillation counting bag with scintillant. Radioactivity in each well is detected by liquid scintillation counting.
In assays where filter plates are used Multiscreen glass fiber filter plates (Millipore, Cat No MAFCNOB10) are precoated with 0.5% PEI for ˜2 hr at 4° C. All wells are then washed with 200 µl/well assay buffer and filtered using the Multiscreen Separation System. Subsequently receptor membranes, assay buffer and labelled ligands are added to the wells and equilibrated. Compounds for testing are then added to the mixture and incubation is continued for an optimized time. Plates are then put into the Multiscreen Separation System and the assay mixture is filtered through the plate under vacuum. Each well is then washed several times with assay buffer. Plates are then dried prior to putting sealing tape onto the bottom of the plate. Scintillant is added to each well and radioactivity measured by liquid scintillation counting.
Raw data was analysed according to standard methods using either GraphPad Prism software or IDDBS ActivityBase software.

MC4 = biological target: T2, MC4 (Homo sapiens, UniProt P32245); experiment: GPCR radioligand binding (RLB) assay, melanocortin MC4, [125I]NDP-αMSH
T2 construct: purchased Perkin Elmer BioSignal; host or cells: HEK 293
T2 sequence (P32245 whole entry): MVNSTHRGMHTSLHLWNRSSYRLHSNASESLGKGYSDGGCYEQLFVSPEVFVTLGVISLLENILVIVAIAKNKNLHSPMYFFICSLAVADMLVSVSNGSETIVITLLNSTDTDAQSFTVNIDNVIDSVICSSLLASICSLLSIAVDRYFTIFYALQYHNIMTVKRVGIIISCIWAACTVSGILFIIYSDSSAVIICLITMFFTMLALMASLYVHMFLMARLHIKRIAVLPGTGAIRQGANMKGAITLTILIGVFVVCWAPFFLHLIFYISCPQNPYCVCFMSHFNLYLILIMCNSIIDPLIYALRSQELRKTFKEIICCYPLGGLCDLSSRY
In short: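 Membranes from HEK 293 cells expressing the recombinant human receptor were equilibrated with [125I]SST-14 (SST5) or [125I]NDP-αMSH (MC4), then compound added for an optimized incubation. Bound ligand separated by filtration on PEI-coated glass fiber and counted by liquid scintillation.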

[1] = 10 micromolar compound, recombinant human receptor membranes (HEK 293)
[2] = 10 micromolar, Example Library 4

| SMILES | SST5 inhibition at 10 micromolar (SST5) | also measured |
| --- | --- | --- |
| CSC1OC(COCc2ccccc2)C(O)C(OCc2ccc(-c3ccccc3)cc2)C1NC(=O)CN (stereo not shown) [Compound 167] | + (Indicates inhibition greater than . . . 50%) | MC4 inhibition at 10 micromolar (MC4; [1]): + (Indicates inhibition greater than . . . 50%) |
| COCC1OC(OCCc2ccccc2)C(NC(=O)CN)C(OCc2ccc3ccccc3c2)C1O (stereo not shown) [Compound 278] |  | SSTS inhibition at 10 micromolar (SST5): + (Indicates inhibition greater than . . . 50%); MC4 inhibition at 10 micromolar (MC4; [2]): + (Indicates inhibition greater than . . . 50%) |
| COCC1OC(OCc2ccc3ccccc3c2)C(NC(=O)CN)C(OCc2ccc(-c3ccccc3)cc2)C1O (stereo not shown) [Compound 298] |  | SSTS inhibition at 10 micromolar (SST5): + (Indicates inhibition greater than . . . 50%); MC4 inhibition at 10 micromolar (MC4; [2]): + (Indicates inhibition greater than . . . 50%) |
| CSC1OC(COCc2ccc3ccccc3c2)C(O)C(OCc2ccc(Cl)cc2)C1NC(=O)CN (stereo not shown) [Compound 161] | + (Indicates inhibition greater than . . . 50%) | MC4 inhibition at 10 micromolar (MC4; [1]): + (Indicates inhibition greater than . . . 50%) |
| CSC1OC(COCc2cccc(N)c2)C(O)C(OCc2ccccc2)C1NC(=O)CCC1CNc2ccccc21 (stereo not shown) [Compound 330] | + (Indicates inhibition greater than . . . 50%) | MC4 inhibition at 10 micromolar (MC4; [1]): + (Indicates inhibition greater than . . . 50%) |
| CSC1OC(COCc2ccccc2)C(O)C(OCc2ccc3ccccc3c2)C1NC(=O)CCCNC(=N)N (stereo not shown) [Compound 196] | + (Indicates inhibition greater than . . . 50%) | MC4 inhibition at 10 micromolar (MC4; [1]): + (Indicates inhibition greater than . . . 50%) |
| COCC1OC(OCCc2ccccc2)C(NC(=O)CNC(=N)N)C(OCc2ccc(Cl)cc2)C1O (stereo not shown) [Compound 267] |  | SSTS inhibition at 10 micromolar (SST5): + (Indicates inhibition greater than . . . 50%); MC4 inhibition at 10 micromolar (MC4; [2]): + (Indicates inhibition greater than . . . 50%) |
| COCC1OC(OCc2ccc3ccccc3c2)C(NC(=O)CNC(=N)N)C(OCc2ccc(-c3ccccc3)cc2)C1O (stereo not shown) [Compound 297] |  | SSTS inhibition at 10 micromolar (SST5): + (Indicates inhibition greater than . . . 50%); MC4 inhibition at 10 micromolar (MC4; [2]): + (Indicates inhibition greater than . . . 50%) |
| CSC1OC(COCc2ccc(-c3ccccc3)cc2)C(O)C(OCc2ccccc2)C1NC(=O)CCCN (stereo not shown) [Compound 135] | + (Indicates inhibition greater than . . . 50%) | MC4 inhibition at 10 micromolar (MC4; [1]): + (Indicates inhibition greater than . . . 50%) |
| COC1C(O)C(COCc2ccc(-c3ccccc3)cc2)OC(OCc2ccc3ccccc3c2)C1NC(=O)CCCN (stereo not shown) [Compound 69] | + (Indicates inhibition greater than . . . 50%) | MC4 inhibition at 10 micromolar (MC4; [1]): + (Indicates inhibition greater than . . . 50%) |
| CSC1OC(COCc2ccc(-c3ccccc3)cc2)C(O)C(OCc2ccc3ccccc3c2)C1NC(=O)CCCN (stereo not shown) [Compound 207] | + (Indicates inhibition greater than . . . 50%) | MC4 inhibition at 10 micromolar (MC4; [1]): + (Indicates inhibition greater than . . . 50%) |
| COCC1OC(OCc2ccccc2)C(NC(=O)CCCNC(=N)N)C(OCc2ccc(-c3ccccc3)cc2)C1O (stereo not shown) [Compound 230] |  | SSTS inhibition at 10 micromolar (SST5): + (Indicates inhibition greater than . . . 50%); MC4 inhibition at 10 micromolar (MC4; [2]): + (Indicates inhibition greater than . . . 50%) |
| CSC1O[C@H](COCc2ccccc2)[C@@H](O)[C@H](OCc2cccc(N)c2)[C@H]1NC(=O)CCC1CNc2ccccc21 (stereo partly shown) [Compound 320] | + (Indicates inhibition greater than . . . 50%) | MC4 inhibition at 10 micromolar (MC4; [1]): + (Indicates inhibition greater than . . . 50%) |
| COC[C@H]1OC(OCc2ccc(-c3ccccc3)cc2)[C@H](NC(=O)CCNC(=N)N)[C@@H](OCc2ccc3ccccc3c2)[C@@H]1O (stereo partly shown) [Compound 2] | + (Indicates inhibition greater than . . . 50%) |  |
| COC[C@H]1OC(OCc2ccccc2)[C@H](NC(=O)CCCN)[C@@H](OCc2ccc(-c3ccccc3)cc2)[C@@H]1O (stereo partly shown) [Compound 7] | + (Indicates inhibition greater than . . . 50%) |  |
| CSC1OC(COCc2cccc(N)c2)C(O)C(OCc2ccccc2)C1NC(=O)c1ccccc1 (stereo not shown) [Compound 326] | + (Indicates inhibition greater than . . . 50%) |  |
| CSC1O[C@H](COCc2ccc(Cl)cc2)[C@@H](O)[C@H](OCc2cccc(N)c2)[C@H]1NC(=O)Cc1ccccc1 (stereo partly shown) [Compound 322] | + (Indicates inhibition greater than . . . 50%) |  |
| CSC1OC(COCc2ccccc2)C(O)C(OCc2ccc(Cl)cc2)C1NC(=O)CN (stereo not shown) [Compound 143] | + (Indicates inhibition greater than . . . 50%) |  |
| COC[C@H]1OC(OCc2ccc(Cl)cc2)[C@H](NC(=O)CCCNC(=N)N)[C@@H](OCc2ccccc2)[C@@H]1O (stereo partly shown) [Compound 47] | + (Indicates inhibition greater than . . . 50%) |  |
| CSC1OC(COCc2ccc(Cl)cc2)C(O)C(OCc2ccccc2)C1NC(=O)CCN (stereo not shown) [Compound 127] | + (Indicates inhibition greater than . . . 50%) |  |

| SMILES | SST5 inhibition at 10 micromolar (SST5) | also measured |
| --- | --- | --- |
| CSC1OC(COC(=O)c2ccccc2)C(O)C(OCc2cccc(N)c2)C1NCc1ccc(Cl)cc1 (stereo not shown) [Compound 312] | + (Indicates inhibition greater than . . . 50%) |  |
| COCC1OC(OCc2ccc3ccccc3c2)C(NC(=O)CCN)C(OCc2ccc(Cl)cc2)C1O (stereo not shown) [Compound 292] |  | SSTS inhibition at 10 micromolar (SST5): + (Indicates inhibition greater than . . . 50%) |
| COC[C@H]1OC(OCCc2ccccc2)[C@H](NC(=O)CCCN)[C@@H](OCc2ccc(-c3ccccc3)cc2)[C@@H]1O (stereo partly shown) [Compound 48] | + (Indicates inhibition greater than . . . 50%) |  |
| COC[C@H]1OC(OCc2ccccc2)[C@H](NC(=O)CCCN)[C@@H](OCc2ccccc2)[C@@H]1O (stereo partly shown) [Compound 9] | + (Indicates inhibition greater than . . . 50%) |  |
| COCC1OC(OCc2ccc3ccccc3c2)C(NC(=O)CCCN)C(OCc2ccccc2)C1O (stereo not shown) [Compound 288] |  | SSTS inhibition at 10 micromolar (SST5): + (Indicates inhibition greater than . . . 50%) |
| COC[C@H]1OC(OCc2ccccc2)[C@H](NC(=O)CCCN)[C@@H](OCc2cccc(O)c2)[C@@H]1O (stereo partly shown) [Compound 25] | + (Indicates inhibition greater than . . . 50%) |  |
| CSC1O[C@H](COCc2ccccc2)[C@@H](O)[C@H](OCc2cccc(N)c2)[C@H]1NC(=O)c1ccccc1 (stereo partly shown) [Compound 316] | + (Indicates inhibition greater than . . . 50%) |  |
| COCC1OC(OCCc2ccccc2)C(NC(=O)CCN)C(OCc2ccccc2)C1O (stereo not shown) [Compound 262] |  | SSTS inhibition at 10 micromolar (SST5): + (Indicates inhibition greater than . . . 50%) |
| COC[C@H]1OC(OCc2ccc(Cl)cc2)[C@H](NC(=O)CCCN)[C@@H](OCc2ccccc2)[C@@H]1O (stereo partly shown) [Compound 16] | + (Indicates inhibition greater than . . . 50%) |  |
| CSC1OC(COCc2ccc(-c3ccccc3)cc2)C(O)C(OCc2ccc(-c3ccccc3)cc2)C1NC(=O)CCCNC(=N)N (stereo not shown) [Compound 184] | + (Indicates inhibition greater than . . . 50%) |  |
| COCC1OC(OCc2ccc3ccccc3c2)C(NC(=O)CN)C(OCc2ccccc2)C1O (stereo not shown) [Compound 284] |  | SSTS inhibition at 10 micromolar (SST5): + (Indicates inhibition greater than . . . 50%) |
| COCC1OC(OCc2ccccc2)C(NC(=O)CN)C(OCc2ccc3ccccc3c2)C1O (stereo not shown) [Compound 231] |  | SSTS inhibition at 10 micromolar (SST5): + (Indicates inhibition greater than . . . 50%) |
| COC[C@H]1OC(OCCc2ccccc2)[C@H](NC(=O)CCCN)[C@@H](OCc2ccc3ccccc3c2)[C@@H]1O (stereo partly shown) [Compound 50] | + (Indicates inhibition greater than . . . 50%) |  |
| COC[C@H]1OC(OCc2ccc(-c3ccccc3)cc2)[C@H](NC(=O)CCNC(=N)N)[C@@H](OCc2ccccc2)[C@@H]1O (stereo partly shown) [Compound 31] | + (Indicates inhibition greater than . . . 50%) |  |
| CSC1OC(COCc2ccccc2)C(O)C(OCc2ccccc2)C1NC(=O)CCCN (stereo not shown) [Compound 123] | + (Indicates inhibition greater than . . . 50%) |  |
| COCC1OC(OCCc2ccccc2)C(NC(=O)CN)C(OCc2ccccc2)C1O (stereo not shown) [Compound 260] |  | SSTS inhibition at 10 micromolar (SST5): + (Indicates inhibition greater than . . . 50%) |
| CSC1OC(COCc2ccc(-c3ccccc3)cc2)C(O)C(OCc2ccccc2)C1NC(=O)CN (stereo not shown) [Compound 131] | + (Indicates inhibition greater than . . . 50%) |  |
| COC[C@H]1OC(OCc2ccc3ccccc3c2)[C@H](NC(=O)CCCN)[C@@H](OCc2cccc(O)c2)[C@@H]1O (stereo partly shown) [Compound 23] | + (Indicates inhibition greater than . . . 50%) |  |
| COC[C@H]1OC(OCc2ccc3ccccc3c2)[C@H](NC(=O)CCCN)[C@@H](OCc2ccccc2)[C@@H]1O (stereo partly shown) [Compound 4] | + (Indicates inhibition greater than . . . 50%) |  |
